# Where a name gives a salt, the structure may show the parent alone.
# Target: T1, 5-HT1A receptors (Rattus norvegicus, UniProt P19327)
# T1 construct: from tissue; host or cells: rat frontal cortex membrane preparation
# T1 sequence (P19327 1-422): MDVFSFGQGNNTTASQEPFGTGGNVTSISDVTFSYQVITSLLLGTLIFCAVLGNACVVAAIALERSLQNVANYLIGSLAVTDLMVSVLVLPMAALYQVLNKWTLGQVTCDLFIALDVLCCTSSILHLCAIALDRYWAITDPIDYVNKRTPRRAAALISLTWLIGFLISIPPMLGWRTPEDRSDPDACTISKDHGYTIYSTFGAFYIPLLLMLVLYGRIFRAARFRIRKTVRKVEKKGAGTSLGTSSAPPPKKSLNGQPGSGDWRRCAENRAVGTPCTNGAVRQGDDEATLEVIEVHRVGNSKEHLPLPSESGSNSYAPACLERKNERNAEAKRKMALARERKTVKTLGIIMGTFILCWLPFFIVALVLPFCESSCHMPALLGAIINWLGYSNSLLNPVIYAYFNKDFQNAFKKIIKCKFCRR
# Assay: 5-HT1A receptor binding experiment
# Settings: isolated frontal cortex membrane preparation of rats, tritiated 8-OH-DPAT ligand, 25° C., 30 minutes
# Protocol: Binding of the compounds of the general Formula (I) to 5-HT1A receptors was investigated according to the method of Peroutka (S. J. Peroutka: J. Neurochem. 47, p. 529 (1986)).
# Receptor bindings were determined from isolated frontal cortex membrane preparation of rats by using tritiated 8-hydroxy-N,N-dipropyl-2-amino-tetraline (8-OH-DPAT) ligand. For the determination of non-specific binding 10 μM serotonin creatinine sulfate was used. The following conditions were applied: incubation […] volume: 250 μl, incubation temperature: 25° C., incubation time: 30 minutes. The reaction was terminated by the addition of 9 ml of 50 mM ice-cold TRIS-HCl buffer (pH=7.7) and quick vacuum filtration using Whatman GFIB fibreglass filtering paper. Radioactivity of the filter boards was measured with the aid of a liquid scintillation spectrometer.
# IC50 is the concentration whereby the difference between whole binding and non-specific binding in the presence of 10 μM serotonin creatinine sulfate is 50%. The compounds with an IC50 value smaller than […] were considered effective in this test.
row,IC50,Structure (SMILES)
1,> 100 nM,"CCC1(CCCCN2CCc3sccc3C2)C(=O)Nc2ccc(Cl)cc21 (stereo not drawn) [Example 26, 5-Chloro-3-[4-(6,7-dihydro-4H-thieno[3,2-c]-pyridin-5-yl)-butyl]-3-ethyl-1,3-dihydro-2H-indol-2-one monohydrochloride]"
2,> 100 nM,"CCC1(CCCCCN2CCc3sc(Cl)cc3C2)C(=O)Nc2ccccc21 (stereo not drawn) [Example 37, 3-[5-(2-Chloro-6,7-dihydro-4H-thieno[3,2-c]-pyridin-5-yl)-pentyl]-3-ethyl-1,3-dihydro-2H-indol-2-one monohydrochloride]"
3,> 100 nM,"CCC1(CCCCN2CCc3sccc3C2)C(=O)Nc2ccccc21 (stereo not drawn) [Example 29, 3-[4-(6,7-Dihydro-4H-thieno[3,2-c]pyridin-5-yl)-butyl]-3-ethyl-1,3-dihydro-2H-indol-2-one monohydrochloride]"
4,> 100 nM,"CCC1(CCCCCN2CCc3sccc3C2)C(=O)Nc2ccccc21 (stereo not drawn) [Example 36, 3-[5-(6,7-Dihydro-4H-thieno[3,2-c]pyridin-5-yl)-pentyl]-3-ethyl-1,3-dihydro-2H-indol-2-one monooxalate]"

# Tested on: Male Sprague-Dawley rats
# Assay: Elevated plus-maze in rats
# Format: in vivo
# Settings: p.o., 60 min after treatment, 5 min test, increase in time spent in or number of entries into the open arms
# Source text: The anxiolytic effect of the compounds according to the invention was investigated on rats according to the so-called elevated plus-maze test (S. Pelow, P. Chopin, S. E. File, J. Briley: Neurosci. Methods 14, p. 149 (1985)).
# A wooden cross elevated to 50 cm above the floor, 15 cm wide with 100 cm long arms was used for the experiments. The sides and ends of two opposite arms of the cross were equipped with 40 cm high walls, however, the arms were open to the 15 cm×15 cm central area (closed arms). The two other opposite arms were not encircled by walls (open arms).
# Male Sprague-Dawley rats weighing 200-220 g were used for the experiments. The animals were placed in the central area of the equipment 60 min after treatment and the following four parameters have been observed for the 5 min test time: […]
# time spent in the open arms (sec), time spent in the closed arms (sec), number of entries into the open arms, number of entries into the closed arms.
# The effect was expressed as percent increase in either the time spent in the open arms or number of entries into the open arms. MEDs (minimal effective doses) were determined for each compound.
row,Structure (SMILES),MED (minimal effective dose)
1,"CCC1(CCCCN2CC=C(c3ccc(F)cc3)CC2)C(=O)Nc2ccccc21 (stereo not drawn) [Example 39, 3-Ethyl-3-{4-[4-(4-fluorophenyl)-1,2,3,6-tetrahydropyridin-1-yl]-butyl}-1,3-dihydro-2H-indol-2-one monohydrochloride]",0.01 mg/kg p.o.
2,"CCC1(CCCCCN2CCc3sccc3C2)C(=O)Nc2ccccc21 (stereo not drawn) [Example 36, 3-[5-(6,7-Dihydro-4H-thieno[3,2-c]pyridin-5-yl)-pentyl]-3-ethyl-1,3-dihydro-2H-indol-2-one monooxalate]",≦1.0 mg/kg p.o.

# Tested on: not given
# Assay: not given
# Settings: not given
row,melting point,Structure (SMILES)
1,117 to 119 °C,"CCC1(CCCCN2CCc3sc(Cl)cc3C2)C(=O)Nc2ccccc21 (stereo not drawn) [Example 34, 3-[4-(2-Chloro-6,7-dihydro-4H-thieno[3,2-c]-pyridin-5-yl)-butyl]-3-ethyl-1,3-dihydro-2H-indol-2-one]"
2,114 to 116 °C,"CC(C)CC1(CCCCN2CCc3sccc3C2)C(=O)Nc2ccccc21 (stereo not drawn) [Example 28, 3-[4-(6,7-Dihydro-4H-thieno[3,2-c]pyridin-5-yl)-butyl]-3-isobutyl-1,3-dihydro-2H-indol-2-one]"
3,194 to 196 °C,"CCC1(CCCCN2CCc3sccc3C2)C(=O)Nc2c(Cl)cc(F)cc21 (stereo not drawn) [Example 33, 7-Chloro-3-[4-(6,7-dihydro-4H-thieno[3,2-c]-pyridin-5-yl)-butyl]-3-ethyl-5-fluoro-1,3-dihydro-2H-indol-2-one]"
4,138 to 140 °C,"CCC1(CCCCN2CCc3sccc3C2)C(=O)Nc2ccc(C)cc21 (stereo not drawn) [Example 30, 3-[4-(6,7-Dihydro-4H-thieno[3,2-c]pyridin-5-yl)-butyl]-3-ethyl-5-methyl-1,3-dihydro-2H-indol-2-one]"
5,96 to 98 °C,"CCC1(CCCCCN2CCc3sc(Cl)cc3C2)C(=O)Nc2ccccc21 (stereo not drawn) (as salt: hydrochloride) [Example 37, 3-[5-(2-Chloro-6,7-dihydro-4H-thieno[3,2-c]-pyridin-5-yl)-pentyl]-3-ethyl-1,3-dihydro-2H-indol-2-one monohydrochloride]"
6,130 to 132 °C,"CCC1(CCCN2CCc3sccc3C2)C(=O)Nc2ccccc21 (stereo not drawn) [Example 23, 3-[3-(6,7-Dihydro-4H-thieno[3,2-c]pyridin-5-yl)-propyl]-3-ethyl-1,3-dihydro-2H-indol-2-one]"
7,149 to 151 °C,"CCC1(CCCCN2CCc3sccc3C2)C(=O)Nc2ccc(Br)cc21 (stereo not drawn) [Example 27, 5-Bromo-3-[4-(6,7-dihydro-4H-thieno[3,2-c]pyridin-5-yl)-butyl]-3-ethyl-1,3-dihydro-2H-indol-2-one]"
8,66 to 69 °C,"CCC1(CCCN2CCc3sccc3C2)C(=O)Nc2ccc(Cl)cc21 (stereo not drawn) [Example 24, 5-Chloro-3-[3-(6,7-dihydro-4H-thieno[3,2-c]-pyridin-5-yl)-propyl]-3-ethyl-1,3-dihydro-2H-indol-2-one]"
9,143 to 144 °C,"CCC1(CCCCN2CCc3sccc3C2)C(=O)Nc2ccccc21 (stereo not drawn) (as salt: hydrochloride) [Example 29, 3-[4-(6,7-Dihydro-4H-thieno[3,2-c]pyridin-5-yl)-butyl]-3-ethyl-1,3-dihydro-2H-indol-2-one monohydrochloride]"
10,112 to 114 °C,CCC1(CCCCN2CC=C(c3cccc(Cl)c3)CC2)C(=O)Nc2ccc(F)cc21 (stereo not drawn)
11,193 to 195 °C,"CCC1(CCCCCN2CCc3sccc3C2)C(=O)Nc2ccccc21 (stereo not drawn) (as salt: oxalate) [Example 36, 3-[5-(6,7-Dihydro-4H-thieno[3,2-c]pyridin-5-yl)-pentyl]-3-ethyl-1,3-dihydro-2H-indol-2-one monooxalate]"
12,142 to 145 °C,CCC1(CCCCN2CC=C(c3ccc(Cl)cc3)CC2)C(=O)Nc2ccccc21 (stereo not drawn)
13,146 to 148 °C,CCC1(CCCCN2CC=C(c3ccc(Cl)cc3)CC2)C(=O)Nc2ccc(F)cc21 (stereo not drawn)
14,155 to 157 °C,"CCC1(CCCCN2CCc3sccc3C2)C(=O)Nc2cc(F)c(Cl)cc21 (stereo not drawn) [Example 35, 5-Chloro-3-[4-(6,7-dihydro-4H-thieno[3,2-c]-pyridin-5-yl)-butyl]-3-ethyl-6-fluoro-1,3-dihydro-2H-indol-2-one]"

row,Structure (SMILES),melting point
1,"CCC1(CCCCN2CC=C(c3ccc(F)cc3)CC2)C(=O)Nc2ccccc21 (stereo not drawn) (as salt: hydrochloride) [Example 39, 3-Ethyl-3-{4-[4-(4-fluorophenyl)-1,2,3,6-tetrahydropyridin-1-yl]-butyl}-1,3-dihydro-2H-indol-2-one monohydrochloride]",108 to 111 °C

# Reference: patent US20090281137A1, “INDOL-2-ONE DERIVATIVES FOR THE TREATMENT OF CENTRAL NERVOUS DISORDERS, GASTROINTESTINAL DISORDERS AND CARDIOVASCULAR DISORDERS” (priority 2004, published 2009)
